In patent US7192906B2, “Substituted pyrazole derivatives, production process thereof, and herbicide compositions containing the derivatives” (SDS Biotech K.K., priority 2001, dated 2007):

Tests used:
Assay type in all cases: in vivo
Chenopodium album [1] = test: Test Example 1 upland field foliage treatment; conditions: Table 4, upland field foliage treatment, index 0-5
Outline: (§1)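 Post-emergence foliar spray, 1 kg a.i./ha, wettable powder diluted in water, applied 14 d after sowing in upland soil. Rating 21 d post-application, 0–5 scale: 5 ≥90%, 4 70–<90%, 3 50–<70%, 2 30–<50%, 1 10–<30%, 0 <10% effect or injury.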

Digitaria adscendens [2] = test: Test Example 1 upland field foliage treatment; conditions: Table 4, upland field foliage treatment, index 0-5
Outline: as §1

Setaria viridis [3] = test: Test Example 1 upland field foliage treatment; conditions: Table 4, upland field foliage treatment, index 0-5
Outline: as §1

Stellaria media [4] = test: Test Example 1 upland field foliage treatment; conditions: Table 4, upland field foliage treatment, index 0-5
Outline: as §1

soybean (Glycine max) [5] = test: Test Example 1 upland field foliage treatment, crop phytotoxicity; conditions: Table 4, upland field foliage treatment, index 0-5
Outline: as §1

[6] = test system: wheat (Triticum aestivum); test: as above; conditions: Table 4, upland field foliage treatment, index 0-5
Outline: as §1

Chenopodium album [7] = test: Test Example 2 upland soil treatment; conditions: Table 5, upland soil treatment, index 0-5
Outline: (§2)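 Seeds are sown into upland soil and covered by roughly 1 cm of soil, then the compound, formulated as a wettable powder and diluted with water, is applied uniformly to the soil surface the following day at 1 kg active ingredient per hectare. Herbicidal effect or phytotoxicity is graded 0 to 5 after 21 days.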

Digitaria adscendens [8] = test: Test Example 2 upland soil treatment; conditions: Table 5, upland soil treatment, index 0-5
Outline: as §2

Setaria viridis [9] = test: Test Example 2 upland soil treatment; conditions: Table 5, upland soil treatment, index 0-5
Outline: as §2

Stellaria media [10] = test: Test Example 2 upland soil treatment; conditions: Table 5, upland soil treatment, index 0-5
Outline: as §2

soybean (Glycine max) [11] = test: Test Example 2 upland soil treatment, crop phytotoxicity; conditions: Table 5, upland soil treatment, index 0-5
Outline: as §2

[12] = test system: wheat (Triticum aestivum); test: as above; conditions: Table 5, upland soil treatment, index 0-5
Outline: as §2

Ammannia multiflora = test: Test Example 3 paddy field treatment; conditions: paddy field treatment, wettable powder, active ingredient 1 kg per hectare, 21st day after the dropping, index 0-5
Outline: (§3)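 Scoring used a 0–5 scale of herbicidal effect or phytotoxicity, from <10% to ≥90%, taken 21 days after treatment. Treatment was 1 kg a.i./ha as diluted wettable powder dripped onto 4 cm-deep flooded pots sown with the weeds, 10 days after transplanting two-leaf Koshihikari rice.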

Echinochloa crusgalli = test: Test Example 3 paddy field treatment; conditions: paddy field treatment, wettable powder, active ingredient 1 kg per hectare, 21st day after the dropping, index 0-5
Outline: as §3

Monochoria vaginalis = test: Test Example 3 paddy field treatment; conditions: paddy field treatment, wettable powder, active ingredient 1 kg per hectare, 21st day after the dropping, index 0-5
Outline: as §3

Scirpus juncoides = test: Test Example 3 paddy field treatment; conditions: paddy field treatment, wettable powder, active ingredient 1 kg per hectare, 21st day after the dropping, index 0-5
Outline: as §3

Rice (Oryza sativa) = test: Test Example 3 paddy field treatment, crop phytotoxicity; conditions: paddy field treatment, transplanted rice Koshihikari, wettable powder, active ingredient 1 kg per hectare, 21st day after the dropping, index 0-5
Outline: as §3

Row | SMILES | Herbicidal activity CA: Chenopodium album (Chenopodium album [1]) | Herbicidal activity DA: Digitaria adscendens (Digitaria adscendens [2]) | Herbicidal activity SV: Setaria viridis (Setaria viridis [3]) | Herbicidal activity SM: Stellaria media (Stellaria media [4]) | Herbicidal activity (phytotoxicity) GM: Soybean (Glycine max) (soybean (Glycine max) [5]) | Herbicidal activity (phytotoxicity) TA: Wheat (Triticum aestivum) [6] | Herbicidal activity CA: Chenopodium album (Chenopodium album [7]) | Herbicidal activity DA: Digitaria adscendens (Digitaria adscendens [8]) | Herbicidal activity SV: Setaria viridis (Setaria viridis [9]) | Herbicidal activity SM: Stellaria media (Stellaria media [10]) | Herbicidal activity (phytotoxicity) GM: Soybean (Glycine max) (soybean (Glycine max) [11]) | Herbicidal activity (phytotoxicity) TA: Wheat (Triticum aestivum) [12] | Herbicidal activity AM (Ammannia multiflora) | Herbicidal activity EC (Echinochloa crusgalli) | Herbicidal activity MV (Monochoria vaginalis) | Herbicidal activity SJ (Scirpus juncoides) | Herbicidal activity OS (phytotoxicity to rice) (Rice (Oryza sativa))
1 | CON=C(Cn1cc(C)c(-c2ccccc2)n1)C(=O)NCC#N [Compound 33] | 4 (herbicidal effect of not less than 70% and less than 90%, or phytotoxicity of 70% or more and less than 90%) | 5 (herbicidal effect of not less than 90%, or phytotoxicity of 90% or more) | 4 (herbicidal effect of not less than 70% and less than 90%, or phytotoxicity of 70% or more and less than 90%) | 4 (herbicidal effect of not less than 70% and less than 90%, or phytotoxicity of 70% or more and less than 90%) | 0 (herbicidal effect of not less than 0% and less than 10%, or phytotoxicity of 0% or more and less than 10%) | 0 (herbicidal effect of not less than 0% and less than 10%, or phytotoxicity of 0% or more and less than 10%) | 5 (herbicidal effect of not less than 90%, or phytotoxicity of 90% or more) | 5 (herbicidal effect of not less than 90%, or phytotoxicity of 90% or more) | 4 (herbicidal effect of not less than 70% and less than 90%, or phytotoxicity of 70% or more and less than 90%) | 5 (herbicidal effect of not less than 90%, or phytotoxicity of 90% or more) | 0 (herbicidal effect of not less than 0% and less than 10%, or phytotoxicity of 0% or more and less than 10%) | 0 (herbicidal effect of not less than 0% and less than 10%, or phytotoxicity of 0% or more and less than 10%) | 5 (herbicidal effect of not less than 90%, or phytotoxicity of 90% or more) | 5 (herbicidal effect of not less than 90%, or phytotoxicity of 90% or more) | 5 (herbicidal effect of not less than 90%, or phytotoxicity of 90% or more) | 4 (herbicidal effect of not less than 70% and less than 90%, or phytotoxicity of 70% or more and less than 90%) | 0 (herbicidal effect of not less than 0% and less than 10%, or phytotoxicity of 0% or more and less than 10%)
2 | CON=C(Cn1cc(C)c(-c2ccccc2)n1)C(=O)NCC(F)(F)F [Compound 34] | 4 (herbicidal effect of not less than 70% and less than 90%, or phytotoxicity of 70% or more and less than 90%) | 5 (herbicidal effect of not less than 90%, or phytotoxicity of 90% or more) | 4 (herbicidal effect of not less than 70% and less than 90%, or phytotoxicity of 70% or more and less than 90%) | 4 (herbicidal effect of not less than 70% and less than 90%, or phytotoxicity of 70% or more and less than 90%) | 0 (herbicidal effect of not less than 0% and less than 10%, or phytotoxicity of 0% or more and less than 10%) | 0 (herbicidal effect of not less than 0% and less than 10%, or phytotoxicity of 0% or more and less than 10%) | 5 (herbicidal effect of not less than 90%, or phytotoxicity of 90% or more) | 5 (herbicidal effect of not less than 90%, or phytotoxicity of 90% or more) | 4 (herbicidal effect of not less than 70% and less than 90%, or phytotoxicity of 70% or more and less than 90%) | 5 (herbicidal effect of not less than 90%, or phytotoxicity of 90% or more) | 0 (herbicidal effect of not less than 0% and less than 10%, or phytotoxicity of 0% or more and less than 10%) | 0 (herbicidal effect of not less than 0% and less than 10%, or phytotoxicity of 0% or more and less than 10%) | 5 (herbicidal effect of not less than 90%, or phytotoxicity of 90% or more) | 5 (herbicidal effect of not less than 90%, or phytotoxicity of 90% or more) | 5 (herbicidal effect of not less than 90%, or phytotoxicity of 90% or more) | 5 (herbicidal effect of not less than 90%, or phytotoxicity of 90% or more) | 1 (herbicidal effect of not less than 10% and less than 30%, or phytotoxicity of 10% or more and less than 30%)
3 | CNC(=O)C(Cn1cc(C)c(-c2ccc(C)cc2)n1)=NOC [Compound 37] | 5 (herbicidal effect of not less than 90%, or phytotoxicity of 90% or more) | 5 (herbicidal effect of not less than 90%, or phytotoxicity of 90% or more) | 5 (herbicidal effect of not less than 90%, or phytotoxicity of 90% or more) | 5 (herbicidal effect of not less than 90%, or phytotoxicity of 90% or more) | 0 (herbicidal effect of not less than 0% and less than 10%, or phytotoxicity of 0% or more and less than 10%) | 0 (herbicidal effect of not less than 0% and less than 10%, or phytotoxicity of 0% or more and less than 10%) | 5 (herbicidal effect of not less than 90%, or phytotoxicity of 90% or more) | 5 (herbicidal effect of not less than 90%, or phytotoxicity of 90% or more) | 5 (herbicidal effect of not less than 90%, or phytotoxicity of 90% or more) | 5 (herbicidal effect of not less than 90%, or phytotoxicity of 90% or more) | 0 (herbicidal effect of not less than 0% and less than 10%, or phytotoxicity of 0% or more and less than 10%) | 0 (herbicidal effect of not less than 0% and less than 10%, or phytotoxicity of 0% or more and less than 10%) | 5 (herbicidal effect of not less than 90%, or phytotoxicity of 90% or more) | 5 (herbicidal effect of not less than 90%, or phytotoxicity of 90% or more) | 5 (herbicidal effect of not less than 90%, or phytotoxicity of 90% or more) | 5 (herbicidal effect of not less than 90%, or phytotoxicity of 90% or more) | 1 (herbicidal effect of not less than 10% and less than 30%, or phytotoxicity of 10% or more and less than 30%)
4 | CNC(=O)C(Cn1cc(C)c(-c2ccc(OC)cc2)n1)=NOC [Compound 41, 2-methoxyimino-3-((4′-methoxyphenyl)-4-methyl-pyrazole)-1-yl-propanoic acid-N-methylamide] | 5 (herbicidal effect of not less than 90%, or phytotoxicity of 90% or more) | 5 (herbicidal effect of not less than 90%, or phytotoxicity of 90% or more) | 5 (herbicidal effect of not less than 90%, or phytotoxicity of 90% or more) | 5 (herbicidal effect of not less than 90%, or phytotoxicity of 90% or more) | 1 (herbicidal effect of not less than 10% and less than 30%, or phytotoxicity of 10% or more and less than 30%) | 0 (herbicidal effect of not less than 0% and less than 10%, or phytotoxicity of 0% or more and less than 10%) | 5 (herbicidal effect of not less than 90%, or phytotoxicity of 90% or more) | 5 (herbicidal effect of not less than 90%, or phytotoxicity of 90% or more) | 5 (herbicidal effect of not less than 90%, or phytotoxicity of 90% or more) | 5 (herbicidal effect of not less than 90%, or phytotoxicity of 90% or more) | 1 (herbicidal effect of not less than 10% and less than 30%, or phytotoxicity of 10% or more and less than 30%) | 0 (herbicidal effect of not less than 0% and less than 10%, or phytotoxicity of 0% or more and less than 10%) | 5 (herbicidal effect of not less than 90%, or phytotoxicity of 90% or more) | 5 (herbicidal effect of not less than 90%, or phytotoxicity of 90% or more) | 5 (herbicidal effect of not less than 90%, or phytotoxicity of 90% or more) | 5 (herbicidal effect of not less than 90%, or phytotoxicity of 90% or more) | 0 (herbicidal effect of not less than 0% and less than 10%, or phytotoxicity of 0% or more and less than 10%)
